Laboratory results as given in patent US20230024302A1, “2,3,5-TRISUBSTITUTED PYRAZOLO[1,5-A]PYRIMIDINE COMPOUNDS” (Arcus Biosciences, Inc., priority 2019, published 2023).

What was measured:
PI3Kγ (p120γ) = biological target: T1, PI3Kγ (p120γ) (Homo sapiens, UniProt P48736); experiment: Inhibition of PI3K kinase activity (ADP Glo), PI3Kγ; conditions: Table 1, p120γ, read-out: biochemical potency (PI3Kγ IC50)
T1 construct: purchased Promega V1761
Method: Compounds were evaluated to determine the potency with which they inhibited the kinase activity of the Class I PI3K subunits p110α/p85α (Promega, Cat #V1721), p110β/p85α (Promega, Cat #V1751), p120γ (Promega, Cat #V1761) and p110δ/p85α (Promega, Cat #V1771). Activity was determined as a function of ADP (adenosine diphosphate) generated from ATP consumed during the phosphorylation of Phosphatidylinositol 4,5-bisphosphate (PIP2) (Promega, Cat #V1701) to yield Phosphatidylinositol (3,4,5)-trisphosphate (PIP3). ADP levels in the assay mixture at the end of the reaction were quantitated using ADP Glo (Promega, Cat #V9103) according to the manufacturer's recommended protocol.
Enzyme was prepared for each of the PI3K subunits in 100 mM HEPES, pH 7.4, 100 mM NaCl, 6 mM MgCl2 and 0.05% BSA. p110α/p85α was prepared at 2 nM (2×), p110β/p85α was prepared at 7 nM (2×), p120γ was prepared at 8 nM (2×) and p110δ/p85α was prepared at 2 nM (2×). Five microliters of 2× enzyme dilution of each PI3K subunit were added to a 384-well white Opti-plates pre-dispensed with compound and allowed to incubate for 1 h at rt. A substrate mix containing 0.1 mg/ml (2×) of PIP2 and 50 μM (2×) ATP (Promega, Cat #V915) was prepared in 25 mM HEPES and 0.5 mM EGTA. Reactions were initiated by addition of 5 μl of 2× substrate mix to each well of the plates containing various PI3K isoforms and allowed to proceed for 60 min at rt. Ten microliters of ADP Glo reagent 1 were added to the wells of each plate and allowed to incubate at rt for 45 min according to the manufacturer's directions. Following incubation, 20 μl of ADP Glo reagent 2 was added to each plate and allowed to incubate for an additional 45 min. Luminescent signal, generated by ADP Glo, was quantified by reading on a Perkin Elmer Envision multimode reader. Compound potencies (IC50's) were determined using a standard 4-parameter fit non-linear regression fit.

PI3Kγ = biological target: T2, PI3Kγ (Homo sapiens, UniProt P48736); experiment: PI3Kγ cellular assay in THP-1 cells (AKT pS473 AlphaLISA); type: cell-based; conditions: Table 1, rhMCP-1 stimulated AKT pS473, read-out: cellular potency (PI3Kγ IC50)
T2 construct: host or cells: THP-1
T2 sequence (P48736 whole entry): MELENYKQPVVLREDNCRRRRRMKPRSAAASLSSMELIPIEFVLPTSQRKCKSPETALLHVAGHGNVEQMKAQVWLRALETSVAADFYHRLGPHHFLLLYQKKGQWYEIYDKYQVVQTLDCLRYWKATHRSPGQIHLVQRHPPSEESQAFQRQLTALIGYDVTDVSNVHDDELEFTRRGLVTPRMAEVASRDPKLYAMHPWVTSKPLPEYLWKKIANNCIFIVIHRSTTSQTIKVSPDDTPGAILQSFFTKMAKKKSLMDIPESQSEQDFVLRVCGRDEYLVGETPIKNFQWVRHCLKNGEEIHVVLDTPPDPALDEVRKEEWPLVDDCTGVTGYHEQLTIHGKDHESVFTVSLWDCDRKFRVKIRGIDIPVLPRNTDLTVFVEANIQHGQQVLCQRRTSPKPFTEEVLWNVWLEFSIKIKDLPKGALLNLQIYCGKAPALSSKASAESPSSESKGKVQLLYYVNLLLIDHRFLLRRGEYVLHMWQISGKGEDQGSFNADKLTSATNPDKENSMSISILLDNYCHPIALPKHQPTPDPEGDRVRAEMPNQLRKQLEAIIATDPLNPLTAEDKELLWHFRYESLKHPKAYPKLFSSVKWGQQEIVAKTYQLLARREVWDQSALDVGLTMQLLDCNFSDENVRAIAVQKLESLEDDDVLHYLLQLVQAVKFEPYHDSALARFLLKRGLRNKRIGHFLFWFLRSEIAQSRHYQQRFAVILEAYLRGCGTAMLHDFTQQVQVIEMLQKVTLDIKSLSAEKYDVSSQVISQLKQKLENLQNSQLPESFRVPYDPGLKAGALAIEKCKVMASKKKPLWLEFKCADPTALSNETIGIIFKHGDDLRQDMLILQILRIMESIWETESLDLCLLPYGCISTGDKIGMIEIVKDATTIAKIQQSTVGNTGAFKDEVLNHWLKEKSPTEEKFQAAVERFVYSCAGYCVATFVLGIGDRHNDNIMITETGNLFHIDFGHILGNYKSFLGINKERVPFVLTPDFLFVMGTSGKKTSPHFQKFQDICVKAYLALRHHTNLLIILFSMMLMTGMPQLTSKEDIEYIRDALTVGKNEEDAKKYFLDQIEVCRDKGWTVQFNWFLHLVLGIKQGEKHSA
Method: Twenty microliters of serum starved THP-1 cells were added to the compound plate in serum free DMEM at a density of 9×10^6 cells per ml. Final assay conditions comprised 1.8×10^5 THP-1 cells per well with test compounds in 2% DMSO across a concentration range from 4 nM to 30 μM. […] Briefly, 10 μL of 4× lysis buffer was added to cells after stimulation. Following 60 min incubation at rt, 10 μL of cell lysate was transferred to a fresh 384-well Opti-plate to which 5 μL of AlphaLisa acceptor beads and 5 μL of AlphaLisa donor beads had been added. […] PI3Kγ activity was evaluated as a correlate of endogenous AKT phosphorylation levels. Percentage maximum activity in each test well was calculated based on DMSO (100% activity) and positive control treated cell wells (0% activity). The potencies (IC50's) of test compounds were determined using a standard 4-parameter fit non-linear regression fit.

T1 sequence (P48736 whole entry): as above

IC50 (PI3Kγ (p120γ)) [nM]	IC50 (PI3Kγ) [nM]	SMILES
< 100	< 100	Cc1cc(-c2ccn3nc(N)c(C(=O)N[C@H]4CC[C@H](O)C4)c3n2)cc2c1C(=O)N([C@@H](C)C1CC1)C2 [Example 3, 2-Amino-5-{2-[(1S)-1-cyclopropylethyl]-7-methyl-1-oxo-2,3-dihydro-1H-isoindol-5-yl}-N-[(1S,3S)-3-hydroxycyclopentyl]pyrazolo[1,5-a]pyrimidine-3-carboxamide]
< 100	< 100	Cc1cc(-c2ccn3nc(N)c(C(=O)N[C@@H]4CC[C@@H](O)C4)c3n2)cc2c1C(=O)N([C@@H](C)C1CC1)C2 [Example 5, 2-Amino-5-{2-[(1S)-1-cyclopropylethyl]-7-methyl-1-oxo-2,3-dihydro-1H-isoindol-5-yl}-N-[(1R,3R)-3-hydroxycyclopentyl]pyrazolo[1,5-a]pyrimidine-3-carboxamide]
< 100	< 100	Cc1cc(-c2ccn3nc(N)c(C(=O)N[C@@H]4CCC[C@H]4O)c3n2)cc2c1C(=O)N([C@@H](C)C1CC1)C2 [Example 8, 2-Amino-5-{2-[(1S)-1-cyclopropylethyl]-7-methyl-1-oxo-2,3-dihydro-1H-isoindol-5-yl}-N-[(1R,2R)-2-hydroxycyclopentyl]pyrazolo[1,5-a]pyrimidine-3-carboxamide]
< 100	< 100	Cc1cc(-c2ccn3nc(N)c(C(=O)N[C@H]4CCC[C@@H](O)C4)c3n2)cc2c1C(=O)N([C@@H](C)C1CC1)C2 [Example 9, 2-Amino-5-{2-[(1S)-1-cyclopropylethyl]-7-methyl-1-oxo-2,3-dihydro-1H-isoindol-5-yl}-N-[(1S,3R)-3-hydroxycyclohexyl]pyrazolo[1,5-a]pyrimidine-3-carboxamide]
< 100	< 100	Cc1cc(-c2ccn3nc(N)c(C(=O)N[C@@H]4CCC[C@@H](O)C4)c3n2)cc2c1C(=O)N([C@@H](C)C1CC1)C2 [Example 11, 2-Amino-5-{2-[(1S)-1-cyclopropylethyl]-7-methyl-1-oxo-2,3-dihydro-1H-isoindol-5-yl}-N-[(1R,3R)-3-hydroxycyclohexyl]pyrazolo[1,5-a]pyrimidine-3-carboxamide]
< 100	< 100	Cc1cc(-c2ccn3nc(N)c(C(=O)N[C@H]4C[C@H](CO)C4)c3n2)cc2c1C(=O)N([C@@H](C)C1CC1)C2 [Example 12, 2-Amino-5-{2-[(1S)-1-cyclopropylethyl]-7-methyl-1-oxo-2,3-dihydro-1H-isoindol-5-yl}-N-[trans-3-(hydroxymethyl)cyclobutyl]pyrazolo[1,5-a]pyrimidine-3-carboxamide]

Continued, compound first:

SMILES	IC50 (PI3Kγ (p120γ)) [nM]	IC50 (PI3Kγ) [nM]
Cc1cc(-c2ccn3nc(N)c(C(=O)N[C@H]4CC[C@@](C)(O)CC4)c3n2)cc2c1C(=O)N([C@@H](C)C1CC1)C2 [Example 2, 2-Amino-5-{2-[(1S)-1-cyclopropylethyl]-7-methyl-1-oxo-2,3-dihydro-1H-isoindol-5-yl}-N-[cis-4-hydroxy-4-methylcyclohexyl]pyrazolo[1,5-a]pyrimidine-3-carboxamide]	< 100	< 100
Cc1cc(-c2ccn3nc(N)c(C(=O)NC[C@H]4C[C@H](O)C4)c3n2)cc2c1C(=O)N([C@@H](C)C1CC1)C2 [Example 4]	< 100	< 100
Cc1cc(-c2ccn3nc(N)c(C(=O)N[C@H]4C[C@](C)(O)C4)c3n2)cc2c1C(=O)N([C@@H](C)C1CC1)C2 [Example 6, 2-Amino-5-{2-[(1S)-1-cyclopropylethyl]-7-methyl-1-oxo-2,3-dihydro-1H-isoindol-5-yl}-N-[trans-3-hydroxy-3-methylcyclobutyl]pyrazolo[1,5-a]pyrimidine-3-carboxamide]	< 100	< 100
Cc1cc(-c2ccn3nc(N)c(C(=O)N[C@H]4CC[C@](C)(O)CC4)c3n2)cc2c1C(=O)N([C@@H](C)C1CC1)C2 [Example 7, 2-Amino-5-{2-[(1S)-1-cyclopropylethyl]-7-methyl-1-oxo-2,3-dihydro-1H-isoindol-5-yl}-N-[trans-4-hydroxy-4-methylcyclohexyl]pyrazolo[1,5-a]pyrimidine-3-carboxamide]	< 100	< 100
Cc1cc(-c2ccn3nc(N)c(C(=O)N[C@H]4CNC(=O)C4)c3n2)cc2c1C(=O)N([C@@H](C)C1CC1)C2 [Example 10, 2-Amino-5-{2-[(1S)-1-cyclopropylethyl]-7-methyl-1-oxo-2,3-dihydro-1H-isoindol-5-yl}-N-[(3R)-5-oxopyrrolidin-3-yl]pyrazolo[1,5-a]pyrimidine-3-carboxamide]	< 100	< 100
Cc1cc(-c2ccn3nc(N)c(C(=O)N[C@]4(C)C[C@@H](O)C4)c3n2)cc2c1C(=O)N([C@@H](C)C1CC1)C2 [Example 13, 2-Amino-5-{2-[(1S)-1-cyclopropylethyl]-7-methyl-1-oxo-2,3-dihydro-1H-isoindol-5-yl}-N-[trans-3-hydroxy-1-methylcyclobutyl]pyrazolo[1,5-a]pyrimidine-3-carboxamide]	< 100	< 100
Cc1cc(-c2ccn3nc(N)c(C(=O)N[C@H]4C[C@H](C(C)(C)O)C4)c3n2)cc2c1C(=O)N([C@@H](C)C1CC1)C2 [Example 14, 2-Amino-5-{2-[(1S)-1-cyclopropylethyl]-7-methyl-1-oxo-2,3-dihydro-1H-isoindol-5-yl}-N-[trans-3-(2-hydroxypropan-2-yl)cyclobutyl]pyrazolo[1,5-a]pyrimidine-3-carboxamide]	< 100	< 100
Cc1cc(-c2ccn3nc(N)c(C(=O)Nc4cccc(C(=O)O)c4)c3n2)cc2c1C(=O)N([C@@H](C)C1CC1)C2 [Example 15, m-[(5-{2-[(S)-1-Cyclopropylethyl]-7-methyl-5-isoindolinoyl}-2-amino-1,4,7a-triaza-3-indenyl)carbonylamino]benzoic acid]	< 100	< 100
Cc1cc(-c2ccn3nc(N)c(C(=O)Nc4cnn(CCO)c4)c3n2)cc2c1C(=O)N([C@@H](C)C1CC1)C2 [Example 16, 2-Amino-5-{2-[(1S)-1-cyclopropylethyl]-7-methyl-1-oxo-2,3-dihydro-1H-isoindol-5-yl}-N-[1-(2-hydroxyethyl)-1H-pyrazol-4-yl]pyrazolo[1,5-a]pyrimidine-3-carboxamide]	< 100	< 100
Cc1cc(-c2ccn3nc(N)c(C(=O)Nc4cnn(CC(C)(C)O)c4)c3n2)cc2c1C(=O)N([C@@H](C)C1CC1)C2 [Example 17, 2-Amino-5-{2-[(1S)-1-cyclopropylethyl]-7-methyl-1-oxo-2,3-dihydro-1H-isoindol-5-yl}-N-[1-(2-hydroxy-2-methylpropyl)-1H-pyrazol-4-yl]pyrazolo[1,5-a]pyrimidine-3-carboxamide]	< 100	< 100
Cc1cc(-c2ccn3nc(N)c(C(=O)Nc4cnn(C)c4)c3n2)cc2c1C(=O)N([C@@H](C)C1CC1)C2 [Example 18, 2-Amino-5-{2-[(1S)-1-cyclopropylethyl]-7-methyl-1-oxo-2,3-dihydro-1H-isoindol-5-yl}-N-(1-methyl-1H-pyrazol-4-yl)pyrazolo[1,5-a]pyrimidine-3-carboxamide]	< 100	< 100
Cc1cc(-c2ccn3nc(N)c(C(=O)Nc4cnn(C)c4C)c3n2)cc2c1C(=O)N([C@@H](C)C1CC1)C2 [Example 19, 2-Amino-5-{2-[(1S)-1-cyclopropylethyl]-7-methyl-1-oxo-2,3-dihydro-1H-isoindol-5-yl}-N-(1,5-dimethyl-1H-pyrazol-4-yl)pyrazolo[1,5-a]pyrimidine-3-carboxamide]	< 100	< 100
C[C@@H](C1CC1)N1Cc2cc(-c3ccn4nc(N)c(C(=O)NC5CC5)c4n3)cc(OC(F)(F)F)c2C1=O [Example 20, 2-Amino-N-cyclopropyl-5-{2-[(1S)-1-cyclopropylethyl]-1-oxo-7-(trifluoromethoxy)-2,3-dihydro-1H-isoindol-5-yl}pyrazolo[1,5-a]pyrimidine-3-carboxamide]	< 100	< 100
